Where two headings read alike, the source gives them in different places.
Experiments:
NRC-03-nhCoV [1] = experiment: microbe, parasite or virus in culture; type: cell-based, SARS-CoV-2
NRC-03-nhCoV [2] = experiment: Viral adsorption mechanism, plaque infectivity reduction assay; type: cell-based, SARS-CoV-2
Protocol: The viral adsorption mechanism was assayed according to a protocol by Zhang and his colleagues with minor modifications. Vero-E6 cells were cultivated in a 6-well plate (10^5 cells/mL) for 24 h at 37 °C. Each tested drug was applied in 200 µL medium without supplements and co-incubated with the cells for 2 h at 4 °C. The inocula containing the non-absorbed drug were removed by washing cells three successive times with supplement-free medium. SARS-CoV-2 virus diluted to 104 PFU/well was co-incubated with the pretreated cells for 1 h, and then 3 mL DMEM supplemented with 2% agarose were added. Plates were left to solidify and then incubated at 37 °C to allow the formation of viral plaques. The plaques were fixed and stained as described above to calculate the percentage reduction in plaque formation compared to control wells, which comprised untreated Vero-E6 cells directly infected with NRC-03-nhCoV.

NRC-03-nhCoV [3] = experiment: Viral replication mechanism, plaque infectivity reduction assay; type: cell-based, SARS-CoV-2
Protocol: The impact of tested drug on viral replication was determined as previously described. Vero-E6 cells were cultivated in a 6-well plate (10^5 cell/mL) for 24 h at 37 °C. Virus was inoculated directly to the cells and incubated for 1 h at 37 °C. The inocula containing the non-adsorbed viral particles were removed by washing cells three successive times with supplement-free medium. The test compound was added in varying concentrations to infected cells for another 1 h contact time. After removing the inocula containing the tested drug, 3 mL of DMEM supplemented with 2% agarose were added to the cell monolayer. Plates were left to solidify and incubated at 37 °C until the appearance of viral plaques. Cell monolayers were fixed in 10% formalin solution for 1 h and stained with crystal violet. Control wells contained Vero-E6 cells incubated with the virus. Plaques were counted and the percentage reduction in plaque formation was compared to the control wells.

NRC-03-nhCoV [4] = experiment: Virucidal mechanism, plaque infectivity reduction assay; type: cell-based, SARS-CoV-2; conditions: for virucidal effect: concentration not given
Protocol: The virucidal mechanism was assayed following a previously described protocol. In a 6-well plate, Vero-E6 cells were cultivated (10^5 cells/mL) for 24 h at 37 °C and 200 µL of serum-free DMEM containing SARS-CoV-2 was added to each sample with promising inhibition. After 1 h incubation, the mixture was diluted 10-fold three times using serum-free medium, which still allowed viral particles to grow on Vero-E6 cells. Next, 100 µL of each dilution were added to the Vero-E6 cell monolayer. After 1 h contact time, a DMEM overlayer was added to the cell monolayer. Plates were left to solidify and incubated at 37 °C to allow the formation of viral plaques. The plaques were fixed and stained as described above to calculate the percentage reduction in plaque formation. This value was compared to control wells comprising cells infected with virus and not pretreated with the tested material.

SARS-CoV-2 [5] = experiment: Plaque reduction assay, anti-SARS-CoV-2 activity; type: cell-based; conditions: read-out: viral inhibition, SARS-CoV-2
MERS-CoV = experiment: microbe, parasite or virus in culture; type: cell-based; conditions: for antiviral effect on MERS-CoV compared with SARS-CoV-2: equal concentrations of drug, plaque reduction assay
SARS-CoV-2 [6] = conditions: read-out: IC50 against SARS-CoV-2 (reported); cited from earlier work
in vitro = conditions: African green monkey, CC50 (Vero-E6), half maximal cytotoxic concentration, MTT assay, Vero-E6 cells
[7] = Severe acute respiratory syndrome coronavirus 2, Vero C1008, 72 h, Vero-E6 cells, 72 h, crystal violet, reduction of virus-induced CPE by 50%, read-out: IC50 (NRC-03-nhCoV)
[8] = Severe acute respiratory syndrome coronavirus 2, Vero C1008, negative log of the IC50 value against SARS-CoV-2, read-out: pIC50 (converted)
[9] = Middle East respiratory syndrome-related coronavirus, read-out: viral inhibition, MERS-CoV
[10] = Severe acute respiratory syndrome coronavirus 2, read-out: Viral Adsorption, percent inhibition
[11] = Severe acute respiratory syndrome coronavirus 2, read-out: Viral Replication, percent inhibition
[12] = Severe acute respiratory syndrome coronavirus 2, read-out: Virucidal, percent inhibition

**Q.** What does the source list for CC[C@H]1OC(=O)[C@H](C)[C@@H](O[C@H]2C[C@@](C)(OC)[C@@H](O)[C@H](C)O2)[C@H](C)[C@@H](O[C@@H]2O[C@H](C)C[C@H](N(C)C)[C@H]2O)[C@](C)(O)C[C@@H](C)CN(C)[C@H](C)[C@@H](O)[C@]1(C)O [Azithromycin]?
**A.** IC50 (NRC-03-nhCoV [1]; [7]): 320 nM; IC50 (NRC-03-nhCoV [1]; [8]): 324 nM; inhibition at 0.16 µM (NRC-03-nhCoV [2]; Severe acute respiratory syndrome coronavirus 2, 0.16 µM, read-out: Viral Adsorption, percent inhibition): 0%; inhibition at 0.322 µM (NRC-03-nhCoV [2]; Severe acute respiratory syndrome coronavirus 2, 0.322 µM, read-out: Viral Adsorption, percent inhibition): 2%; inhibition at 0.64 µM (NRC-03-nhCoV [2]; Severe acute respiratory syndrome coronavirus 2, 0.64 µM, read-out: Viral Adsorption, percent inhibition): 27%; inhibition at 1.3 µM (NRC-03-nhCoV [2]; Severe acute respiratory syndrome coronavirus 2, 1.3 µM, read-out: Viral Adsorption, percent inhibition): ≤ 31%; inhibition at 0.16 µM (NRC-03-nhCoV [3]; Severe acute respiratory syndrome coronavirus 2, 0.16 µM, read-out: Viral Replication, percent inhibition): 0%; inhibition at 0.322 µM (NRC-03-nhCoV [3]; Severe acute respiratory syndrome coronavirus 2, 0.322 µM, read-out: Viral Replication, percent inhibition): 0%; inhibition at 0.64 µM (NRC-03-nhCoV [3]; Severe acute respiratory syndrome coronavirus 2, 0.64 µM, read-out: Viral Replication, percent inhibition): 2%; inhibition at 1.3 µM (NRC-03-nhCoV [3]; Severe acute respiratory syndrome coronavirus 2, 1.3 µM, read-out: Viral Replication, percent inhibition): 4%; inhibitory effect on virus replication (NRC-03-nhCoV [3]; concentration not given): negligible effect on viral replication; inhibition at 0.16 µM (NRC-03-nhCoV [4]; Severe acute respiratory syndrome coronavirus 2, 0.16 µM, read-out: Virucidal, percent inhibition): 12%; inhibition at 0.322 µM (NRC-03-nhCoV [4]; Severe acute respiratory syndrome coronavirus 2, 0.322 µM, read-out: Virucidal, percent inhibition): 34%; inhibition at 0.64 µM (NRC-03-nhCoV [4]; Severe acute respiratory syndrome coronavirus 2, 0.64 µM, read-out: Virucidal, percent inhibition): 51%; inhibition at 1.3 µM (NRC-03-nhCoV [4]; Severe acute respiratory syndrome coronavirus 2, 1.3 µM, read-out: Virucidal, percent inhibition): 51%; virucidal effect (NRC-03-nhCoV [4]): up to 51%; inhibition at 5 µM (SARS-CoV-2 [5]; Severe acute respiratory syndrome coronavirus 2, 5 µM (lowest concentration tested)): ~80%; inhibition at 10 µM (SARS-CoV-2 [5]; Severe acute respiratory syndrome coronavirus 2, 10 µM (highest concentration tested)): ~90%; inhibition at 5 µM (MERS-CoV; [9]): ~20%; inhibition at 10 µM (MERS-CoV; [9]): ~30%; IC50 (SARS-CoV-2 [6]): 2120 nM; CC50 (in vitro): 793000 nM

**Q.** For O=C(Nc1ccc([N+](=O)[O-])cc1Cl)c1cc(Cl)ccc1O [Niclosamide], which IC50 (NRC-03-nhCoV [1]; [7]) is on record?
**A.** 160 nM

**Q.** What about the IC50 (NRC-03-nhCoV [1]; [8]) of the same molecule?
**A.** 162 nM

**Q.** And the inhibition at 1.302 µM (NRC-03-nhCoV [2]; [10])?
**A.** 0%

**Q.** And the inhibition at 2.6 µM (NRC-03-nhCoV [2]; [10])?
**A.** 0%

**Q.** What about the inhibition at 5.2 µM (NRC-03-nhCoV [2]; [10]) of the same molecule?
**A.** 0%

**Q.** And the inhibition at 10.4 µM (NRC-03-nhCoV [2]; [10])?
**A.** 0%

**Q.** And the “inhibition during the viral adsorption stage” value (NRC-03-nhCoV [2]; concentration not given)?
**A.** negligible reduction in viral inhibition

**Q.** And the inhibition at 1.302 µM (NRC-03-nhCoV [3]; [11])?
**A.** 23%

**Q.** And the inhibition at 2.6 µM (NRC-03-nhCoV [3]; [11])?
**A.** 55%

**Q.** What about the inhibition at 5.2 µM (NRC-03-nhCoV [3]; Severe acute respiratory syndrome coronavirus 2, 5.2 µM, read-out: Viral Replication, percent inhibition) of the same molecule?
**A.** 68%

**Q.** What about the inhibition at 10.4 µM (NRC-03-nhCoV [3]; Severe acute respiratory syndrome coronavirus 2, 10.4 µM, read-out: Viral Replication, percent inhibition) of the same molecule?
**A.** 70%

**Q.** And the inhibition at 1.302 µM (NRC-03-nhCoV [4]; [12])?
**A.** 16%

**Q.** What about the inhibition at 2.6 µM (NRC-03-nhCoV [4]; [12]) of the same molecule?
**A.** 21%

**Q.** And the inhibition at 5.2 µM (NRC-03-nhCoV [4]; [12])?
**A.** 21%

**Q.** What about the inhibition at 10.4 µM (NRC-03-nhCoV [4]; [12]) of the same molecule?
**A.** 37%

**Q.** What about the virucidal effect (NRC-03-nhCoV [4]) of the same molecule?
**A.** 37%

**Q.** What about the “antiviral effect on MERS-CoV compared with SARS-CoV-2” value (MERS-CoV) of the same molecule?
**A.** equally effective against SARS-CoV-2 and MERS-CoV

**Q.** And the CC50 (in vitro)?
**A.** 205000 nM

**Q.** Which IC50 (NRC-03-nhCoV [1]; [7]) does the source give for CC(=O)Oc1ccccc1C(=O)Nc1ncc([N+](=O)[O-])s1 [Nitazoxanide] here?
**A.** 1290 nM

**Q.** What about the IC50 (NRC-03-nhCoV [1]; [8]) of the same molecule?
**A.** 1290 nM

**Q.** What about the inhibition at 1.302 µM (NRC-03-nhCoV [2]; [10]) of the same molecule?
**A.** 0%

**Q.** What about the inhibition at 2.6 µM (NRC-03-nhCoV [2]; [10]) of the same molecule?
**A.** 1%

**Q.** What about the inhibition at 5.2 µM (NRC-03-nhCoV [2]; [10]) of the same molecule?
**A.** 11%

**Q.** What about the inhibition at 10.4 µM (NRC-03-nhCoV [2]; [10]) of the same molecule?
**A.** 11%

**Q.** What about the “Viral Replication, percent inhibition” value (NRC-03-nhCoV [3]; 5.2 µM) of the same molecule?
**A.** Toxic

**Q.** What about the “Viral Replication, percent inhibition” value (NRC-03-nhCoV [3]; 10.4 µM) of the same molecule?
**A.** Toxic

**Q.** And the inhibition at 1.302 µM (NRC-03-nhCoV [3]; [11])?
**A.** 35%

**Q.** What about the inhibition at 2.6 µM (NRC-03-nhCoV [3]; [11]) of the same molecule?
**A.** 40%

**Q.** And the inhibition at 1.302 µM (NRC-03-nhCoV [4]; [12])?
**A.** 39%

**Q.** What about the inhibition at 2.6 µM (NRC-03-nhCoV [4]; [12]) of the same molecule?
**A.** 61%

**Q.** And the inhibition at 5.2 µM (NRC-03-nhCoV [4]; [12])?
**A.** 75%

**Q.** What about the inhibition at 10.4 µM (NRC-03-nhCoV [4]; [12]) of the same molecule?
**A.** 78%

**Q.** And the “antiviral effect on MERS-CoV compared with SARS-CoV-2” value (MERS-CoV)?
**A.** equally effective against SARS-CoV-2 and MERS-CoV

**Q.** What about the CC50 (in vitro) of the same molecule?
**A.** 665000 nM

— article PMC7761982, “FDA-Approved Drugs with Potent In Vitro Antiviral Activity against Severe Acute Respiratory Syndrome Coronavirus 2” (Pharmaceuticals, 2020)
